“Also recorded” adds a separate entry of the source.
Columns and labels:
[1] = tested on: rat trachea rings; test: Tracheal relaxation assay (carbachol precontracted rings); details: for Percentage of carbachol-induced contraction at 1 μM compound, Avg % / Percentage of carbachol-induced contraction at 10 μM compound, Avg %: 1 μM carbachol; for IC50: Rattus norvegicus, read-out: IC50 Avg; for Trachael Ring Contraction, %: average percentage of carbachol-induced rat tracheal ring contraction at 1 μM of test compound;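 on all read-outs here: isometric tension of rat tracheal rings in Krebs buffer with 1 µM indomethacin, compounds added cumulatively at 30 min intervals, basal tension subtracted, fit to Hill equation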
Description: The effects of compounds to induce relaxation of pre-contracted rat trachealis were determined. […] Trachea were excised, cleaned of connective tissue and cut into cylindrical segments of 2-3 mm length. Two stainless steel wires were guided through the lumen of the tracheal ring. One wire was fixed in the tissue bath and the other was connected to a force transducer via surgical silk. […] Indomethacin (1 μM), a cyclooxygenase inhibitor, was added to the Krebs buffer and was present throughout the experiments. Contractile tensions were measured using an isometric force transducer (Grass Instruments) and signals were analyzed using specialized software (Chart v5.5, ADInstruments). The preparations were allowed to equilibrate at a resting tension of 0.3 to 0.5 gm prior to two challenges with 60 mM KCl to assess tissue viability. After washing, tissues were treated with 1 μM carbachol for 10 to 15 minutes to induce a contractile response. Test Compounds were added cumulatively to the bath every 30 minutes and reductions in tension were recorded. Basal tension was subtracted from all values and data were reported as a percentage of the maximal carbachol-induced contraction. Data were fit to the Hill equation using GraphPad Prism v5 software.

[2] = tested on: rat tracheal rings pretreated with vehicle or IL-1β and TNF-α; test: Effect of inflammatory cytokines on tracheal relaxation; details: FIG. 7
Description: Male Sprague-Dawley rats weighing 301-325 gm were sacrificed by asphyxiation in a CO2 chamber. Trachea were excised, cleaned of connective tissue and cut into cylindrical segments of 2-3 mm length. Tissues were treated for 18 hours at 37° C. in F12 media with penicillin-streptomycin and 0.1% BSA alone or with 10 ng/ml IL-1β and 100 ng/ml TNF-α. Tissues were then washed free of cytokines with Krebs buffer. Contractile tensions were measured using an isometric force transducer (Grass Instruments) as described for Example 3 and signals were analyzed using specialized software (Chart v5.5, ADInstruments). Tissues were treated with 300 nM carbachol for 10 to 15 minutes to induce a contractile response. Test Compounds were added cumulatively to the bath every 30 minutes and reductions in tension were recorded. Basal tension was subtracted from all values and data were reported as a percentage of the maximal carbachol-induced contraction. Data were fit to the Hill equation using GraphPad Prism v5 software.

[3] = tested on: ova-sensitized, ova-challenged mice; test: Bronchodilator assay in ovalbumin-sensitized mice (Penh, methacholine); format: in vivo, mouse; details: for log10AUC (penh): bronchodilator dosing paradigm
Description: Male BALB/c mice were ordered from Charles River Laboratories (Raleigh, N.C.). The animals were approximately 19 to 21 grams at time of receipt. Upon arrival, the animals were randomized into groups of five males per cage and assigned to a dosing group. Animals were quarantined for 7 days under test conditions. They were observed daily for general health status and ability to adapt to the water bottles.
Animals were sensitized on day 0 and 14 of study by an intraperitoneal injection with 20 μg of ovalbumin (ova) and 2.0 mg aluminum hydroxide (alum) which initiates the development of a specific T-helper (Th) cells type 2 resulting in asthmatic animals. One group of animals received an injection of saline to use as non-asthmatic control animals. All animals were challenged with aerosolized 1% ova once daily for 25 minutes on days 28, 29, and 30 (Zosky, et al. Respiratory Research. 2004; 5:15). Aerosol challenge consists of using an Aerogen Aeroneb nebulizer and controller with a particle size of 4-6 μm mass median aerodynamic diameter (MMAD) with a distribution of 400 μl per minute. This aerosol challenge is necessary to target the Th2-driven allergic inflammation in the lower airways.
The test compounds and the control vehicle were administered to animals on the day of airway hyperreactivity evaluation 30 minutes to 1 hour before the evaluation to determine the bronchodilator effects of the compounds according to the bronchodilator dosing paradigm (FIG. 8). Compounds were administered p.o. (orally), i.p. (intraperitoneally) at 15 μMol/kg unless otherwise noted (Table 6). Alternatively, compounds were administered i.t. (intratracheally) at varying doses as shown (FIG. 9). On day 32 of the experiment, airway hyperreactivity was evaluated by placing conscious, unrestrained animals in a whole body plethysmometer (Buxco Wilmington, N.C.) and exposing them to escalating doses of nebulized methacholine, a known bronchial constrictor which acts through the muscarinic receptors of the lungs, (doses: 0.325-50 mg/ml). Exposure to the methacholine doses consisted of a 3 minute period during which a nebulizer was aerosolizing the methacholine and an additional 3 minute period following the cessation of nebulization. Over this 6 minute period, the plethysmometer monitors and generates numerical values for all parameters of the breath pattern. Enhanced pause (Penh), a unitless index of airway hyperreactivity, is derived from the expiratory side of the respiratory waveform measured via the plethysmograph and is used as an indirect measure of airway resistance and hyperreactivity. […] Following the methacholine dose response, all animals were anesthetized, bled and euthanized.
Within each experiment, a mouse was given a single compound and exposed to increasing doses of methacholine [0 (baseline), 0.375, 0.75, 1.5, 3, 6, 12, 25, 50 mg/ml]. The Penh value at each of the dose levels of methacholine represents the 6-minute average response. Change from baseline (CFB) in Penh was calculated at each methacholine dose and the area under the curve (AUC) for these CFB values was calculated using the trapezoidal rule. This same approach was applied for each mouse across multiple experiments.
For statistical analyses, a linear mixed-effects model where the response was the log 10 transformed value of AUC described above was used. Data from equal experimental conditions across experiments performed on different days were pooled for statistical analysis and data reporting. The various compounds were compared adjusting for the log 10-transformed baseline value of Penh and the chamber (1 of 10) of the plethysmometer each mouse was contained in during an experiment. A random intercept for each experiment was assumed to account for possible similarities of the results obtained from a given experiment (i.e., as a “blocking effect”). […] Computations were performed using PROC MIXED (SAS Version 9.1). […]

[4] = tested on: ova-sensitized, ova-challenged mice; test: In vivo anti-inflammatory assay in ovalbumin-sensitized mice (BALF eosinophils and cytokines); design: species or system mouse
Source text: A mouse model of asthma via ovalbumin sensitization was created as described in Example 23. The anti-inflammatory dosing paradigm (FIG. 10) was utilized to evaluate the anti-inflammatory effects of experimental compounds. The anti-inflammatory dosing paradigm consists of dosing the animals once a day starting on day 27 and finishing on either day 30 or 31 (1 hr prior to the aerosolized ovalbumin challenges on days 28 to 30) but not on day 32 when hyperreactivity evaluation occurs.
Bronchoalveolar lavage fluid (BALF) was collected by infusing 3.0 ml of saline with 10% fetal calf serum into the lungs via the trachea and then withdrawing the fluid. The total amount of cells/ml of BALF fluid was determined via manual cell count on hemocytometer. The BALF was centrifuged, supernatant removed and analyzed for cytokine concentrations as described below, and cell pellet reconstituted in 500 μL of fluid. Cytospin slides were prepared from the cell pellet using 100 μL of fluid and spinning samples for 5 minutes at 5000 rpms in a cytospin centrifuge. Following Hema3 stain, relative percentages of individual leukocytes were determined on a 200 cell count for each sample. The final concentration of individual leukocyte cell types per ml of BALF was determined by multiplication of the relative percentage of individual leukocytes with the total amount of cells/ml of BALF fluid.
The concentrations of cytokines in the BALF samples were determined using commercially available Bio-plex kits (Bio-Rad) for the detection of mouse IL-5, IL-13, and Eotaxin. The analysis of cytokine levels was measured using the Bio-Plex 200 (Bio-Rad) system according to the manufacturer's instructions.

[5] = tested on: LPS-challenged mice; test: LPS-induced neutrophilia and cytokine production assay; format: in vivo, mouse; details: for IL-1β levels in BALF: intratracheal administration, LPS-challenged mice, FIG. 18
Description: Male BALB/c mice, approximately 19 to 21 grams, were ordered from Charles River Laboratories (Raleigh, N.C.). All animals were challenged with aerosolized LPS (10 μg/ml) for 25 minutes on study day 0. LPS aerosol was generated using an Aerogen Aeroneb nebulizer and controller providing a flow of 400 μl/min and a particle size of 2-4 μm MMAD. Rolipram was administered i.p at 20 mg/kg. […] Four hours following LPS challenge, BALF was collected using a total of 3 ml of 0.9% sodium chloride containing 10% fetal calf serum. Total cell counts were determined using the Coulter Counter. For differential evaluations, BALF was centrifuged and cytospin slides prepared and stained with Hema3 stain. Manual leukocyte counts were then completed on 200 cells. The final concentration of individual leukocyte cell types per ml of BALF was determined by multiplication of the relative percentage of individual leukocytes with the total amount of cells/ml of BALF fluid. The concentration of IL-1β in the BALF samples was determined using commercially available Bio-plex kits (Bio-Rad). The analysis of cytokine levels was measured using the Bio-Plex 200 (Bio-Rad) system according to the manufacturer's instructions.

[6] = Rat oral pharmacokinetics (plasma); format: in vivo
Description: Plasma (EDTA K2 anticoagulant) was collected from male, cannulated, CD Sprague Dawley rats to determine the pharmacokinetics of formulations containing compound inhibitors of Rho kinase. Each animal was dosed orally with a 4 ml/kg solution or suspension of each test compound in 10 mM acetate buffered saline, pH 4.5 at a final concentration range of 20-30 μmol/kg. Blood was collected at 0.25, 0.5, 1, 2, 4, 6, 8, and 24 hours. Plasma samples were assayed for the concentration of the test compound using an on-line, solid phase extraction LC/MS/MS analysis system.
Samples were analyzed on a QSTAR Elite, hybrid quadrupole time-of-flight mass spectrometer (Applied Biosystems, Framingham, Mass.) coupled with a Symbiosis Pharma integrated, on-line SPE-HPLC system (Spark Holland Inc., Plainsboro, N.J.). Analyst QS 2.0 software was used for instrument control, data acquisition and processing. […] Mobile Phase A consisted of 0.1% ammonium hydroxide in water and Mobile Phase B consisted of 0.1% formic acid in acetonitrile. Pharmacokinetic analyses were performed using WinNonlin software version 5.2 (Pharsight Corporation, Mountain View, Calif.).
As determined from the plasma concentration versus time curves, the time to peak and peak exposure are represented by the values Tmax and Cmax, respectively. The AUC values (nM*hr) shown were calculated as the areas under the plasma concentration versus time curves from time zero through the time of the last observable value and represent the total exposure of the compound over the course of the study. Half-life values or the amount of time required for the plasma levels of the compound to decline to half the initial value are represented as t1/2.

[7] = tested on: ova-sensitized, ova-challenged mice; test: Prevention of airway hyperreactivity development, anti-inflammatory dosing paradigm (Penh); format: in vivo, mouse; details: for airway hyperreactivity: intratracheal once a day, days 27 to 30 (1.091) or 27 to 31
[8] = biological target: T1, ERK2 (Homo sapiens, UniProt P28482); test: Kinase panel screen (KinaseProfiler), ERK2; format: biochemical; details: 10 μM ATP
T1 construct: purchased Upstate, Millipore Bioscience Division (KinaseProfiler service)
Description: (§1) Compounds of Formulae I and II were examined for activity against a selected panel of kinases using the KinaseProfiler™ enzyme profiling services (Upstate, Millipore Bioscience Division). Percent kinase activity at 10 μM and 1 μM test compound and 10 μM ATP was determined against 40 wild-type recombinant human kinases according to Upstate's standard protocol: ASK1, BTK, CSK, c-RAF, GCK, GSK3β, IKKα, IKKβ, IRAK1, IRAK4, JNK1α1, JNK2α2, JNK3, ERK1, ERK2, MAPKAP-K2, MAPKAP-K3, MEK1, MKK4, MKK6, MKK7β, Mnk2, MSK1, PAK3, PDK1, PRAK, ROCK1, Rsk2, SAPK2a, SAPK2b, SAPK3, SAPK4, SRPK1, SRPK2, Syk, TAK1, TBK1, PI3-Kβ, PI3-Kγ, PI3-Kδ.

[9] = biological target: T2, ERK1 (Homo sapiens, UniProt P27361); test: Kinase panel screen (KinaseProfiler), ERK1; format: biochemical; details: 10 μM ATP
T2 construct: purchased Upstate, Millipore Bioscience Division (KinaseProfiler service)
Description: as §1

[10] = rat, oral, 20-30 μmol/kg, plasma, mean of n = 3

T1 sequence (P28482 whole entry): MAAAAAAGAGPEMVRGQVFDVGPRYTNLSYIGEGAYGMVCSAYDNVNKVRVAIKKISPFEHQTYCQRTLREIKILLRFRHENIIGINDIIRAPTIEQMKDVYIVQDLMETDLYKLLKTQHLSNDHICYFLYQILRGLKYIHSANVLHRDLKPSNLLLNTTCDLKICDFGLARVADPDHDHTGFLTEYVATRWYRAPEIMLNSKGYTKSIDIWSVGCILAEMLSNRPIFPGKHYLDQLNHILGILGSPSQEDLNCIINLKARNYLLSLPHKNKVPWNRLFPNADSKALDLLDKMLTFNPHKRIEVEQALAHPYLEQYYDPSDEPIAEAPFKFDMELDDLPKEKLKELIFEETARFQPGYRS
T2 sequence (P27361 whole entry): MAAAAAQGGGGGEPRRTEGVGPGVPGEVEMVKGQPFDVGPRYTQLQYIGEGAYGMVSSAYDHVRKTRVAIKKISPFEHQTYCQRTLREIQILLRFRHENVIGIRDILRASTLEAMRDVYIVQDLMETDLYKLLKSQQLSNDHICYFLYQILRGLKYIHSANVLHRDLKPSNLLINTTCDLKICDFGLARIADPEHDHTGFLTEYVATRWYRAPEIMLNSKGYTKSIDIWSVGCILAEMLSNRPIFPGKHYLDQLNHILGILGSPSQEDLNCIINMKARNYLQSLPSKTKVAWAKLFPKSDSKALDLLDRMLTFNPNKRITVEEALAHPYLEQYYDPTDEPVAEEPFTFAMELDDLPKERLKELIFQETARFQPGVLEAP

| Structure (SMILES) | Percentage of carbachol-induced contraction at 1 μM compound, Avg % [1] | Percentage of carbachol-induced contraction at 10 μM compound, Avg % [1] | IC50 [1] | Trachael Ring Contraction, % [1] | log10AUC (penh) ([3]; 15 μmol/kg intraperitoneal) | log10AUC (penh) ([3]; 15 μmol/kg oral) | reduction in airway hyperresponsiveness ([3]; oral doses) | IL-1β levels in BALF [5] | airway hyperreactivity [7] | Percent inhibition, ERK2 ([8]; 1 μM test compound) | Percent inhibition, ERK2 ([8]; 10 μM test compound) | Percent inhibition, ERK1 ([9]; 1 μM test compound) | Percent inhibition, ERK1 ([9]; 10 μM test compound) | other results |
| --- | --- | --- | --- | --- | --- | --- | --- | --- | --- | --- | --- | --- | --- | --- |
| CS(=O)(=O)Nc1cccc(CN2CCC[C@H](Nc3ccc4[nH]ncc4c3)C2)c1 [Compound 1.091, (S)-N-(3-((3-(1H-indazol-5-ylamino)piperidin-1-yl)methyl)phenyl)methanesulfonamide] | 35.4% | 14.3% | 103 nM | 35% | 2.0096 | 2.2309 | did not yield a significant reduction | reduction |  |  |  |  |  | relaxation of tracheal rings, cytokine-pretreated tissues ([2]; 10 ng/ml IL-1β and 100 ng/ml TNF-α for 18 hours, 300 nM carbachol): fully efficacious; relaxation of tracheal rings, vehicle-pretreated tissues ([2]; 300 nM carbachol): fully efficacious; potency in cytokine-pretreated versus vehicle-pretreated tissues [2]: slightly more potent in cytokine-pretreated tissues; log10AUC (penh) ([3]; 5 μmol/kg intratracheal): 1.8127; reduction in airway hyperresponsiveness ([3]; i.p. route, compared to oral dosing): enhanced reduction; bronchodilatory response ([3]; intratracheal administration): robust bronchodilatory response; eosinophils in BALF ([4]; dosed i.t. to day 30, anti-inflammatory dosing paradigm, FIG. 12): reduction of eosinophils; LPS-induced pulmonary neutrophilia influx ([5]; intratracheal dosing one hour prior to LPS challenge, FIG. 17): significant reduction; also recorded: dose-dependent inhibition; oral bioavailability ([6]; oral dosing): poor oral bioavailability; AUC (0-last) [6, 10]: BLQ; Cmax [6, 10]: BLQ; Tmax [6, 10]: BLQ; Vz_F [6, 10]: BLQ; t½ [6, 10]: BLQ |
| c1cc2cc(CN3CCC[C@@H](Nc4ccc5[nH]ncc5c4)C3)ccc2o1 [Compound 1.131, (R)-N-(1-(benzofuran-5-ylmethyl)piperidin-3-yl)-1H-indazol-5-amine] | 37.4% | 14.2% | 243 nM | 37% |  | 2.0283 | statistically significant reduction |  |  |  |  |  |  | eosinophils per ml of BALF (airway eosinophil infiltration) ([4]; dosed orally to day 31, anti-inflammatory dosing paradigm, FIG. 11): reduced; airway hyperreactivity to methacholine ([7]; oral 15 μMol/kg once a day during days 27 to 31, methacholine on Day 32): prevention of airway hyperreactivity; plasma and lung tissue concentrations after oral dosing ([6]; oral dosing, refers to Table 13 and Table 15): high plasma and lung tissue concentrations |
| Cc1ccc(CN2CCC[C@@H](Nc3ccc4[nH]ncc4c3)C2)cc1OCCO [Compound 1.161, (R)-2-(5-((3-(1H-indazol-5-ylamino)piperidin-1-yl)methyl)-2-methylphenoxy)ethanol] | 40.3% |  |  | 40% | 1.9042 |  |  |  | prevention of airway hyperreactivity | 104% | 92% |  |  |  |
| NC(=O)Cn1ccc2cc(CN3CCC[C@@H](Nc4ccc5[nH]ncc5c4)C3)ccc21 [Compound 1.162, (R)-2-(5-((3-(1H-indazol-5-ylamino)piperidin-1-yl)methyl)-1H-indol-1-yl)acetamide] | 34.4% |  |  | 34% | 1.7001 |  |  |  |  | 89% | 60% | 84% | 50% |  |
| NC(=O)Cn1ccc2cc(CN3CC[C@@H](Nc4cccc5cnccc45)C3)ccc21 [Compound 2.059, (R)-2-(5-((3-(isoquinolin-5-ylamino)pyrrolidin-1-yl)methyl)-1H-indol-1-yl)acetamide] |  |  |  |  |  |  |  | reduction | prevention of airway hyperreactivity | 56% | 12% | 37% | 4% |  |
| OCCn1ccc2cc(CN3CC[C@@H](Nc4cccc5cnccc45)C3)ccc21 [Compound 2.066, (R)-2-(5-((3-(isoquinolin-5-ylamino)pyrrolidin-1-yl)methyl)-1H-indol-1-yl)ethanol] |  |  |  |  |  |  |  |  | prevention of airway hyperreactivity | 50% | 12% | 52% | 15% |  |

Source: US20130172324A1, “METHOD FOR TREATING CARDIOVASCULAR DISEASES USING RHO KINASE INHIBITOR COMPOUNDS” (priority 2008, published 2013)
